Columns and labels:
[1] = Physical stability of solid forms (accelerated aging conditions / ambient); type: physicochemical; details: 2 days at 40° C./70% RH, HT-XRPD
Experimental: Long term slurry experiments were performed by suspending compound embodiment 1s in twenty neat solvents and stirring at room temperature for two weeks and at 50° C. for one week. Upon completion of the equilibration time, the residual solids were separated from the mother liquors. The solids were dried under ambient conditions and dried under vacuum (5 mBar) before being analyzed by HT-XRPD. Subsequently, the solids were exposed to accelerated aging conditions (40° C./70% relative humidity) for two days and again analyzed by HT-XRPD.
The mother liquors of the solvent equilibration experiments performed at 50° C. were filtered at 50° C. to remove any particulate matter. The suspensions at 50° C. were filtered using 0.2 μm PTFE filters, and the solutions were placed at 5° C. and aged for 72 hours. When solids had precipitated during aging these solids were separated from the liquid, dried under ambient conditions and under vacuum, and analyzed by HT-XRPD. The remaining mother liquors were allowed to slowly evaporate and the remaining solids were analyzed by HT-XRPD. The samples in which no precipitation occurred were placed under vacuum and the dried solids were analyzed by HT-XRPD. All the solids were then exposed to AAC (2 days at 40° C./70% RH) and re-analyzed by HT-XRPD.
The cooling/evaporative crystallization experiments at μL scale were performed in a 96-well plate, using 12 neat solvents and 12 solvent mixtures and applying four temperature profiles. In each well approximately 4 mg of embodiment 1s was solid dosed. Subsequently, the crystallization solvents (80 μL) and solvent mixtures were added to reach a concentration of 50 mg/mL, and the plate, with each well individually sealed, to subsequently undergo one of the four temperature profiles. Upon completion of the temperature profile the solvents were allowed to evaporate at low ambient pressure (24 hours) and the remaining solids were analyzed by HT-XRPD before and after exposure to AAC for 2 days (40° C./70% RH).
The cooling crystallization experiments with hot filtration were performed from supersaturated solutions of compound Ex. 1 prepared at 50° C. in different solvent mixtures. The hot filtrated solutions underwent a 48-hour cooling profile. The vials in which solids had precipitated after the temperature profile were centrifuged and the solids were separated from the liquid and analyzed by HT-XRPD (after drying under vacuum). If no solids had precipitated the solutions were evaporated under vacuum and the solids analyzed by HT-XRPD. All the solids were exposed to AAC (2 days at 40° C./70% RH) and re-analyzed by HT-XRPD. […] In three experiments, an amorphous residue was recovered which after AAC crystallized to a mixture of members of embodiment 1 (1s or 1a) and 3 (3e) or became deliquescent. […]

[2] = Hygroscopicity (GVS) and static storage of embodiment 11; type: physicochemical
Experimental: In a hygroscopicity study of embodiment 11, it was found it to be only slightly hygroscopic, with a mass change of 0.66% between 0-90% RH in the GVS analysis as shown in FIG. 18. […] Variable temperature (VT)-XRPD was performed in order to assess the stability of embodiment 11 upon heating. […] The diffractograms of embodiment 11 before and after the VT-XRPD experiment, along with the diffractogram for embodiment 6 are shown in FIG. 24. Embodiment 11 was also subjected to static storage analysis at 40° C./75% RH for up to 48 days. The samples were analyzed by XRPD and Karl Fisher (KF) after 2 days, 5 days and 48 days.

physical stability after accelerated aging conditions (AAC) [1] | physical stability by XRPD on static storage ([2]; 40° C./75% RH for up to 48 days) | mass change in GVS analysis ([2]; between 0-90% RH) | total water uptake (Karl Fisher) ([2]; static storage 40° C./75% RH, after 48 days) | SMILES
converted to embodiment 3e | – | – | – | CC(C)(O)CNC(=O)Cc1nc2cnc3[nH]ccc3c2n1[C@H]1CC[C@H](CC#N)CC1 [embodiment 2, 2-(1-((1r,4r)-4-(Cyanomethyl)cyclohexyl)-1,6-dihydroimidazo[4,5-d]pyrrolo[2,3-b]pyridin-2-yl)-N-(2-hydroxy-2-methylpropyl)acetamide]
physically unstable | – | – | – | CC(C)(O)CNC(=O)Cc1nc2cnc3[nH]ccc3c2n1[C@H]1CC[C@H](CC#N)CC1 [embodiment 5, 2-(1-((1r,4r)-4-(Cyanomethyl)cyclohexyl)-1,6-dihydroimidazo[4,5-d]pyrrolo[2,3-b]pyridin-2-yl)-N-(2-hydroxy-2-methylpropyl)acetamide]
stable solid form | – | – | – | CC(C)(O)CNC(=O)Cc1nc2cnc3[nH]ccc3c2n1[C@H]1CC[C@H](CC#N)CC1 [embodiment 6, 2-(1-((1r,4r)-4-(Cyanomethyl)cyclohexyl)-1,6-dihydroimidazo[4,5-d]pyrrolo[2,3-b]pyridin-2-yl)-N-(2-hydroxy-2-methylpropyl)acetamide]
physically stable | – | – | – | CC(C)(O)CNC(=O)Cc1nc2cnc3[nH]ccc3c2n1[C@H]1CC[C@H](CC#N)CC1 [embodiment 7, 2-(1-((1r,4r)-4-(Cyanomethyl)cyclohexyl)-1,6-dihydroimidazo[4,5-d]pyrrolo[2,3-b]pyridin-2-yl)-N-(2-hydroxy-2-methylpropyl)acetamide]
– | remained unchanged | 0.66% | 1.2% | CC(C)(O)CNC(=O)Cc1nc2cnc3[nH]ccc3c2n1[C@H]1CC[C@H](CC#N)CC1 [embodiment 11, 2-(1-((1r,4r)-4-(Cyanomethyl)cyclohexyl)-1,6-dihydroimidazo[4,5-d]pyrrolo[2,3-b]pyridin-2-yl)-N-(2-hydroxy-2-methylpropyl)acetamide]

From patent US11066406B2, “Small molecule inhibitors of the JAK family of kinases” (Janssen Pharmaceutica NV, priority 2018, dated 2021)
